`O=C(O)C1=Cc2cc(Cl)cc(CO)c2OC1C(F)(F)F` (stereo not shown) [Example 109, 6-Chloro-8-(hydroxymethyl)-2-(trifluoramethyl)-2H-1-benzopyran-3-carboxylic acid] displayed a melting point of 174.6 to 178.9 °C.
On to `N#Cc1ccc(CN2c3ccc(Cl)cc3C=C(C(=O)O)C2C(F)(F)F)cc1` (stereo not shown) [Example 169, 6-Chloro-1-[(4-cyanophenyl)methyl]-1,2-dihydro-2-(trifluoromethyl)-3-quinolinecarboxylic acid], for which the melting point lay within 258 to 260 °C.
The molecule `O=C(O)C1=C(c2ccccc2)c2cc(Cl)ccc2OC1C(F)(F)F` (stereo not shown) [Example 143, 6-Chloro-2-(trifluoromethyl)-4-phenyl-2H-1-benzopyran-3-carboxylic acid] had a melting point of 225.5 to 226.6 °C.
`COc1cccc2c1C=C(C(=O)O)C(C(F)(F)F)O2` (stereo not shown) [Example 95, 5-Methoxy-2-(trifluoromethyl)-2H-1-benzopyran-3-carboxylic acid]: the melting point fell in the range of 204.5 to 206.7 °C.
`O=C(O)C1=Cc2cc(-c3cccs3)ccc2OC1C(F)(F)F` (stereo not shown) [Example 136, 6-(2-thienyl)-2-(trifluoromethyl)-2H-1-benzopyran-3-carboxylic acid] showed a melting point of 209 to 212 °C.
The figure for `Cc1cc2c(cc1C)SC(C(F)(F)F)C(C(=O)O)=C2` (stereo not shown) [Example 149, 6,7-Dimethyl-2-(trifluoromethyl)-2H-1-benzothiopyran-3-carboxylic acid] is 235 to 237 °C; for `O=C(O)C1=Cc2cc([N+](=O)[O-])ccc2OC1C(F)(F)F` (stereo not shown) [Example 37, 6-Nitro-2-trifluoromethyl-2H-1-benzopyran-3-carboxylic acid] it is 187 to 189 °C.
`C=CC1=C(C(=O)O)C(C(F)(F)F)Oc2ccc(Cl)cc21` (stereo not shown) [Example 142, 6-Chloro-2-(trifluoromethyl)-4-ethenyl-2H-1-benzopyran-3-carboxylic acid] came in with a melting point of 143 to 145 °C.
The molecule `O=C(O)C1=Cc2cc(Cl)cc(-c3ccco3)c2OC1C(F)(F)F` (stereo not shown) [Example 117, 6-Chloro-8-(2-furanyl)-2-(trifluoromethyl)-2H-1-benzopyran-3-carboxylic acid] registered a melting point of 171.5 to 173.3 °C.
`O=C(O)C1=Cc2ccc(Cl)cc2SC1C(F)(F)F` (stereo not shown) [Example 153, 7-Chloro-2-(trifluoromethyl)-2H-1-benzothiopyran-3-carboxylic acid] returned a melting point of 225.7 to 227.3 °C.
Then `CC(C)c1cccc2c1OC(C(F)(F)F)C(C(=O)O)=C2` (stereo not shown) [Example 102, 8-(1-Methylethyl)-2-trifluoromethyl-2H-1-benzopyran-3-carboxylic acid], with 210.5 to 211.5 °C; and `O=C(O)C1=Cc2cc(CO)ccc2OC1C(F)(F)F` (stereo not shown) [Example 80, 6-Hydroxymethyl-2-(trifluoromethyl)-2H-1-benzopyran-3-carboxylic acid], with 177.5 to 180.8 °C; and `O=C(O)C1=Cc2cc(F)cc(Cl)c2OC1C(F)(F)F` (stereo not shown) [Example 133, 8-Chloro-6-fluoro-2-(trifluoromethyl)-2H-1-benzopyran-3-carboxylic acid], with 240 to 241 °C.
`CCCC#Cc1cc(Cl)cc2c1OC(C(F)(F)F)C(C(=O)O)=C2` (stereo not shown) [Example 119, 6-Chloro-8-(1-pentynyl)-2-(trifluoromethyl)-2H-1-benzopyran-3-carboxylic acid] returned a melting point of 168.1 to 171.2 °C.
In turn, `CC(C)Oc1ccc2c(c1)OC(C(F)(F)F)C(C(=O)O)=C2` (stereo not shown) [Example 20, 7-Isopropyloxy-2-trifluoromethyl-2H-1-benzopyran-3-carboxylic acid] had a melting point of 161 to 163 °C.
With `O=C(O)C1=Cc2cc(S(=O)(=O)NCCc3ccccc3)ccc2OC1C(F)(F)F` (stereo not shown) [Example 71, 6-[[(Phenylethyl)amino]sulfonyl]-2-(trifluoromethyl)-2H-1-benzopyran-3-carboxylic acid], the melting point was 187 to 190 °C.

Values taken from patent publication US7138411B2, “Substituted benzopyran derivatives for the treatment of inflammation” (G.D. Searle & Co., priority 1997, dated 2006).
